Experimental data taken from PubChem BioAssay (NCI).
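Where inhibition never reached the appropriate level, the endpoint shown equals the highest concentration tested. Otherwise, values were interpolated linearly from a five-concentration, 48-hour dose response in 96-well plates. GI50 = concentration required for 50% inhibition of growth. Definition used: TGI = concentration required for complete inhibition of growth.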

Tests used:
Assay in all cases: NCI-60 cell line screen, 48 h
[1] = system: 786-0 renal
[2] = system: A498 renal
[3] = system: A549 NSCLC
[4] = system: ACHN renal
[5] = system: BT-549 breast
[6] = system: CAKI-1 renal
[7] = system: CCRF-CEM leukemia
[8] = system: COLO 205 colon
[9] = system: DU-145 prostate
[10] = system: EKVX NSCLC
[11] = system: HCC-2998 colon
[12] = system: HCT-116 colon
[13] = system: HCT-15 colon
[14] = system: HL-60(TB) leukemia
[15] = system: HOP-62 NSCLC
[16] = system: HOP-92 NSCLC
[17] = system: HS 578T breast
[18] = system: HT29 colon
[19] = system: IGROV1 ovarian
[20] = system: K-562 leukemia
[21] = system: KM12 colon
[22] = system: LOX IMVI melanoma
[23] = system: M14 melanoma
[24] = system: MALME-3M melanoma
[25] = system: MCF7 breast
[26] = system: MDA-MB-231 breast
[27] = system: MDA-MB-435
[28] = system: MOLT-4 leukemia
[29] = system: NCI-H226 lung

`CCN1C(=O)N(CC)C2C1NN=C1SC(c3ccccc3)=CC(=O)N12` (stereo not given) was tested, and the GI50 [1] was 472 nM, the TGI [1] was > 100000 nM and the GI50 [2] was > 100000 nM. For the same molecule, the TGI [2] was > 100000 nM, the GI50 [3] was 1020 nM and the TGI [3] was > 100000 nM. The GI50 [4] was 660 nM, the TGI [4] was > 100000 nM and the GI50 [5] was 330 nM. The TGI [5] was 25100 nM, the GI50 [6] was 357 nM and the TGI [6] was > 100000 nM. For the same molecule, the GI50 [7] was 428 nM, the TGI [7] was > 100000 nM and the GI50 [8] was 429 nM. For the same molecule, the TGI [8] was 2200 nM, the GI50 [9] was 717 nM and the TGI [9] was > 100000 nM. The TGI [10] was > 100000 nM, the GI50 [11] was 1540 nM and the TGI [11] was > 28200 nM. The GI50 [12] was 388 nM, the TGI [12] was > 100000 nM and the GI50 [13] was 313 nM. For the same molecule, the TGI [13] was > 74900 nM, the GI50 [14] was 308 nM and the GI50 [15] was 532 nM. For the same molecule, the TGI [15] was > 100000 nM, the GI50 [16] was > 36300 nM and the TGI [16] was > 100000 nM. The GI50 [17] was 489 nM, the TGI [17] was > 100000 nM and the GI50 [18] was 338 nM. For the same molecule, the GI50 [19] was 1090 nM, the TGI [19] was > 100000 nM and the GI50 [20] was 258 nM. The TGI [20] was > 100000 nM, the GI50 [21] was 344 nM and the TGI [21] was > 85600 nM. The GI50 [22] was 562 nM, the TGI [22] was > 100000 nM and the GI50 [23] was 344 nM. For the same molecule, the TGI [23] was > 100000 nM, the GI50 [24] was 492 nM and the TGI [24] was > 100000 nM. The GI50 [25] was 277 nM, the TGI [25] was > 100000 nM and the GI50 [26] was 2450 nM. For the same molecule, the TGI [26] was > 100000 nM, the GI50 [27] was 42.9 nM and the TGI [27] was 176 nM. For the same molecule, the GI50 [28] was 809 nM, the TGI [28] was > 100000 nM and the GI50 [29] was 561 nM. For the same molecule, the TGI [29] was > 72000 nM.
